Source: publication PMC3820677 (PLoS ONE, 2013)

Target: mKv1.3 (Mus musculus, UniProt P16390)
Experiment: cell-based

mKv1.3, sequence (P16390 whole entry): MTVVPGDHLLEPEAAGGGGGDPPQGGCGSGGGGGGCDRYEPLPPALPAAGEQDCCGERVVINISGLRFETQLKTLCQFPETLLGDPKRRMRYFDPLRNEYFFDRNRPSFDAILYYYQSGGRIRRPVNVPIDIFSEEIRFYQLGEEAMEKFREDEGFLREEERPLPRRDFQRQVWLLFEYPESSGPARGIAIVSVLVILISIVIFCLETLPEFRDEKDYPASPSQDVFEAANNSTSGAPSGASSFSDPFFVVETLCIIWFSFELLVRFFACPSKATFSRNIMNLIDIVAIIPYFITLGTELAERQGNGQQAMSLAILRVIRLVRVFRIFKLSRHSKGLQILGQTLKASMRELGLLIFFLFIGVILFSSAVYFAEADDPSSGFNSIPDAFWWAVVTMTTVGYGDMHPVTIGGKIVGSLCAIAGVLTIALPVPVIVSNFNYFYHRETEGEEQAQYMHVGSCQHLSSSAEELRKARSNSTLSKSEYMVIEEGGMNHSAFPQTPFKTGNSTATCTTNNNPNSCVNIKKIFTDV

CC[C@H](C)[C@@H]1NC(=O)[C@@H](NC(=O)[C@H](CO)NC(=O)[C@@H](N)CCCNC(=N)N)CSSC[C@@H](C(=O)O)NC(=O)[C@H]([C@@H](C)O)NC(=O)CNC(=O)[C@@H]2CSSC[C@@H]3NC(=O)[C@H](CCC(N)=O)NC(=O)[C@H](Cc4ccccc4)NC(=O)[C@H](C)NC(=O)[C@H]([C@@H](C)O)NC(=O)[C@H](CSSC[C@H](NC(=O)[C@H](Cc4ccccc4)NC(=O)[C@H](CO)NC(=O)[C@H](CC(C)C)NC(=O)[C@H](CCCNC(=N)N)NC(=O)[C@H](Cc4ccc(O)cc4)NC(=O)[C@H](CCCCN)NC(=O)[C@H](CCSC)NC(=O)[C@H](CO)NC(=O)[C@H](Cc4cnc[nH]4)NC(=O)[C@H](CCCCN)NC3=O)C(=O)N[C@@H](CCCNC(=N)N)C(=O)N[C@@H](CCCCN)C(=O)N[C@@H]([C@@H](C)O)C(=O)N2)NC(=O)[C@H](CCCNC(=N)N)NC(=O)[C@H](CO)NC(=O)[C@H](CCCCN)NC(=O)[C@@H]2CCCN2C(=O)[C@H]([C@@H](C)CC)NC(=O)[C@H]([C@@H](C)O)NC(=O)[C@H](CC(=O)O)NC1=O [ShK]
IC50: 9.3 ± 2 pM
